Series [1] relates to HEK293T cells. The series is described as follows: Constitutive Renilla luciferase. The format is cell-based. The note with it: for Index (CC50/EC50), Cytotoxicity / Activity Index: R-Luc CC50 / DYRK1A-Luc EC50, HEK293T; for R-Luc CC50: HEK293T cells, constitutive Renilla luciferase drops by 50%, 48 h; for fold reduction of cytotoxicity (R-Luc CC50): compared to OTS167 / parent.

The target of series [2] is T1, DYRK1A (Homo sapiens, UniProt Q13627). As to the kind of experiment: DYRK1A NFAT luciferase response assay. It is filed as cell-based. The note with it: for DYRK1A-Luc EC50: HEK293T reporter cells, NFAT-dependent firefly luciferase, 48 h.
The target of series [3] is T2, MELK (Homo sapiens, UniProt Q14680). The following applies: FACS-sorted β-cells, vs vehicle; cited from earlier work.
T2 sequence (Q14680 whole entry): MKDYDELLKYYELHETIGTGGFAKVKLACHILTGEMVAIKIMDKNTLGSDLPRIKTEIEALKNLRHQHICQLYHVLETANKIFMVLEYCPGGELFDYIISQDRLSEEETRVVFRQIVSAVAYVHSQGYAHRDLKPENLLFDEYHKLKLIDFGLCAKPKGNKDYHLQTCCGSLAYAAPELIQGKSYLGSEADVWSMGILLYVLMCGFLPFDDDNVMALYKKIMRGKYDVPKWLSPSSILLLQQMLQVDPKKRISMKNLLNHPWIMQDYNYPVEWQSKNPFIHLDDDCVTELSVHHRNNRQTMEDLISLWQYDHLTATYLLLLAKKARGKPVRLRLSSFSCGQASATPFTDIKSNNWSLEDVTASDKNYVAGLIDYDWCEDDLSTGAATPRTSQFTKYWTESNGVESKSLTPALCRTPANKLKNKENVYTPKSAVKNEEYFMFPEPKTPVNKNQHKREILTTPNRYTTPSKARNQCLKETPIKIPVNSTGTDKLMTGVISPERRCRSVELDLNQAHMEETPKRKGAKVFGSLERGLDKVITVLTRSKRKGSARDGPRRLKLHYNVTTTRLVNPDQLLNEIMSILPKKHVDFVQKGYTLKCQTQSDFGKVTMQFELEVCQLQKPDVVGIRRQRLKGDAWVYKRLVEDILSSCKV
Series [4] is described as follows: in vitro. The following applies: human.
Series [5] relates to HEK293T cells. The note with it: for reduction in cell number / cells killed: inhibitor 40 nM combined with compound 56 (90 nM or 270 nM).
Series [6] in a line: Caco-2 permeability assay. The note with it: 10 μM, pH 7.4, direction not stated. The format is in vitro ADME.
The target of series [7] is T2, MELK. As to the kind of experiment: MELK kinase binding assay.
Series [8] is described as follows: Microsome stability assay, mouse liver microsomes. It is filed as in vitro ADME. The following applies: 1 μM compound, NADPH. Background: Liver microsomes are a subcellular fraction often used to study metabolism.
The nature of series [9]: Microsome stability assay, human liver microsomes. It is filed as in vitro ADME. The note with it: 1 μM compound, NADPH.
For series [10], the system named is human β-cells. The following applies: cited from earlier work.
The target of series [11] is T1, DYRK1A. As to the kind of experiment: Kinome SCAN profile, DYRK1A. It is filed as binding. The following applies: read-out: DYRK1A residual activity.
Series [12] has as its system 468 kinases. The series is described as follows: Kinome SCAN profile. It is filed as binding. The note with it: 100 nM.
The test system of series [13] is human β-cells. The series is described as follows: Human islet β-cell replication.

Like-named read-outs stand apart in the source and are kept apart here.

The term Kd denotes the concentration at which binding is half-saturated.

For `CCOC(=O)c1cnc2ccc(-c3cc(C)c(O)c(C)c3)nc2c1N[C@H]1CC[C@H](CN(C)C)CC1` [Compound 52, Ethyl 4-(((trans)-4-((dimethylamino)methyl)cyclohexyl)amino)-6-(4-hydroxy-3,5-dimethylphenyl)-1,5-naphthyridine-3-carboxylate], the “Index (CC50/EC50), Cytotoxicity / Activity Index” value in series [1] is reported as greater than 842.
Turning to `CCOC(=O)c1cnc2ccc(-c3cc(Cl)c(O)c(Cl)c3)nc2c1N1CCCCC1` [Compound 35, Ethyl 6-(3,5-dichloro-4-hydroxyphenyl)-4-(piperidin-1-yl)-1,5-naphthyridine-3-carboxylate], the “R-Luc CC50” value in series [1] is listed as “reduced cytotoxicity”. Moreover, the “DYRK1A-Luc EC50” value in series [2] was “reduced DYRK1A inhibition potency”.
On to `c1cc(OCCN2CCCCC2)cc(-c2n[nH]c3ccc(-c4nc[nH]n4)cc23)c1` [CC-401], for which the “induction of MELK expression” value in series [3] is 2.6 fold.
In [4] (HEK293T cells), `O=C(O)[C@]1(Cc2cccc(Nc3nccs3)n2)CC[C@@H](Oc2cccc(Cl)c2F)CC1` [MK-5108] returned a CC50 at 48 h greater than 10000 nM. The cells killed in series [5] (MK 3 μM with 56 at 30 nM, 48 h) amounted to 31%; in series [5] (MK 3 μM with 56 at 90 nM, 48 h) it was 36%; in [5] (MK 3 μM with 56 at 270 nM, 48 h), 34%.
In series [4], `O=C(O)c1ccc(Nc2ncc3c(n2)-c2ccc(Cl)cc2C(c2c(F)cccc2F)=NC3)cc1` [MLN-8054] registered a CC50 at 48 h of 55.1 nM. In addition, the “reduction in cell number / cells killed” value in [5] (48 h) is recorded as 50%.
With `CCOC(=O)c1cnc2ccc(-c3cc(Cl)c(O)c(Cl)c3)nc2c1N1CCNCC1` [Compound 38, Ethyl 6-(3,5-dichloro-4-hydroxyphenyl)-4-(piperazin-1-yl)-1,5-naphthyridine-3-carboxylate], in series [1] (HEK293T), the “fold less toxic than butyl amide counterpart (R-Luc CC50)” value was 7 fold. In [1], the “R-Luc CC50” value is on record as “reduced cytotoxicity” and the “Index (CC50/EC50), Cytotoxicity / Activity Index” value came out at 137. Also, the “DYRK1A-Luc EC50” value in series [2] is on record as “reduced DYRK1A inhibition potency”.
As to `CCOC(=O)c1cnc2ccc(-c3cc(Cl)c(O)c(Cl)c3)nc2c1N1CCC(C)CC1` [Compound 36, Ethyl 6-(3,5-dichloro-4-hydroxyphenyl)-4-(4-methylpiperidin-1-yl)-1,5-naphthyridine-3-carboxylate], the “R-Luc CC50” value in [1] is listed as “reduced cytotoxicity”. Moreover, the “DYRK1A-Luc EC50” value in [2] is “reduced DYRK1A inhibition potency”.
Take `CCOC(=O)c1cnc2ccc(-c3cc(Cl)c(O)c(Cl)c3)nc2c1NC1CCN(C)CC1` [Compound 34, Ethyl 6-(3,5-dichloro-4-hydroxyphenyl)-4-((1-methylpiperidin-4-yl)amino)-1,5-naphthyridine-3-carboxylate]: the “fold increase in the Cytotoxicity / Activity Index” value in series [1] (compared to OTS167) is given as ~ 13 fold. Further, the “fold reduction of cytotoxicity (R-Luc CC50)” value (“fold reduction of cytotoxicity” for short) in [1] (HEK293T) is listed as ~ 16 fold. For the same molecule, in [6], the Caco-2 is on record as 4.6 1 x 10^−6 cm/s.
`CCOC(=O)c1cnc2ccc(-c3ccncc3)nc2c1N[C@H]1CC[C@H](CN(C)C)CC1` [Compound 56, Ethyl 4-(((trans)-4-((dimethylamino)methyl)cyclohexyl)amino)-6-(pyridin-4-yl)-1,5-naphthyridine-3-carboxylate]: in series [7], binding was characterised by a dissociation constant (Kd) of 15 nM. Besides, the “MLM t1/2” value in [8] is “readily metabolized”. For the same molecule, the Caco-2 in series [6] is listed as 4.03 1 x 10^−6 cm/s. For the same molecule, the “cytotoxicity (cell number)” value in [5] (56 alone at 30 nM, 90 nM or 270 nM, 48 h) is recorded as “no cytotoxicity”. In addition, the “HLM t1/2” value in series [9] is “readily metabolized”.
In the case of `Nc1ncnc2c1c(I)cn2[C@@H]1O[C@H](CO)[C@@H](O)[C@H]1O` [Compound 5-IT, 5-iodotubercidin], the “human β-cell replication induction-potency [ECmin]” value in [10] is on record as ~ 100 nM.
As to `CN(C)C[C@H]1CC[C@H](Nc2c(C#N)cnc3ccc(-c4cc(Cl)c(O)c(Cl)c4)nc23)CC1` [Compound 16, 6-(3,5-Dichloro-4-hydroxyphenyl)-4-(((trans)-4-((dimethylamino)methyl)cyclohexyl)amino)-1,5-naphthyridine-3-carbonitrile], the “R-Luc CC50” value in [1] is given as “virtually non-toxic”. The “fold reduction in DYRK1A inhibition potency” value in series [2] (compared to OTS167) is ~ 9 fold.
Take `Cn1c(=O)c(F)c(Nc2ccc(I)cc2F)c2c(=O)n(C[C@@H](O)CO)cnc21` [TAK-733]: the cytotoxicity in combination result in series [5] (TAK-733 10 uM combined with 56 (30 nM, 90 nM, or 270 nM)) was “did not exhibit cytotoxicity”. In series [5] (inhibitor alone at 10 uM, 48 h), the cells killed result is listed as “did not exhibit cytotoxicity”.
For the molecule `CCOC(=O)c1cnc2ccc(-c3cc(Cl)c(O)c(Cl)c3)nc2c1N[C@H]1CC[C@H](C)CC1` [Compound 32, Ethyl 6-(3,5-dichloro-4-hydroxyphenyl)-4-(((trans)-4-methylcyclohexyl)amino)-1,5-naphthyridine-3-carboxylate], the “DYRK1A-Luc EC50” value in series [2] is “eliminated cellular activity”.
In the case of `CCOC(=O)c1cnc2ccc(-c3cc(Cl)c(O)c(Cl)c3)nc2c1N[C@H]1CC[C@H](C(=O)N(C)C)CC1` [Compound 42, Ethyl 6-(3,5-dichloro-4-hydroxyphenyl)-4-(((trans)-4-(dimethylcarbamoyl)cyclohexyl)amino)-1,5-naphthyridine-3-carboxylate], the Caco-2 in series [6] is recorded as 0.12 1 x 10^−6 cm/s.
For `CCOC(=O)c1cnc2ccc(-c3cc(Cl)cc(Cl)c3)nc2c1N[C@H]1CC[C@H](CN(C)C)CC1` [Compound 50, Ethyl 6-(3,5-dichlorophenyl)-4-(((trans)-4-((dimethylamino)methyl)cyclohexyl)amino)-1,5-naphthyridine-3-carboxylate], the “DYRK1A-Luc EC50” value in [2] was “abrogated DYRK1A-inhibition”.
With `O=C(NC[C@H](O)CO)c1ccncc1Nc1ccc(I)cc1F` [AS-703026], in series [5] (inhibitor 10 uM combined with 56 (90 nM), 48 h), the cells killed is given as 6%.
Consider `CC(C)Oc1ccc(F)c(-c2cnc(N)c(C(=O)Nc3cnccc3N3CCC[C@@H](C(=O)O)C3)n2)c1` [GNF-4877], for which the “human β-cell replication induction-potency [ECmin]” value in [10] is recorded as ~ 100 nM.
Consider `CCOC(=O)c1cnc2ccc(-c3cc(Cl)c(O)c(Cl)c3)nc2c1N[C@H]1CC[C@H](CC(N)=O)CC1` [Compound 49, Ethyl 4-(((trans)-4-(2-amino-2-oxoethyl)cyclohexyl)amino)-6-(3,5-dichloro-4-hydroxyphenyl)-1,5-naphthyridine-3-carboxylate], for which the Caco-2 in series [6] is given as 0.01 1 x 10^−6 cm/s.
With `CCOC(=O)c1cnc2ccc(-c3cc(Cl)c(O)c(Cl)c3)nc2c1N[C@H]1CC[C@H](CN(C)C)CC1` [Compound 15, Ethyl-6-(3,5-dichloro-4-hydroxyphenyl)-4-(((trans)-4 ((dimethylamino)methyl)cyclohexyl)amino)-1,5-naphthyridine-3-carboxylate], the “fold reduction of cytotoxicity” value in series [1] (HEK293T) is ~ 3 fold.
`CCNC(=O)c1cnc2ccc(-c3ccnc(N)c3)nc2c1N[C@H]1CC[C@H](CN(C)C)CC1` [Compound 60, 6-(2-Aminopyridin-4-yl)-4-(((trans)-4-((dimethylamino)methyl)cyclohexyl)amino)-N-ethyl-1,5-naphthyridine-3-carboxamide]: in series [2], the “DYRK1A-Luc EC50” value was “maintained good DYRK1A activity”.
In turn, `CCN(CCO)CCCOc1ccc2c(Nc3cc(CC(=O)Nc4cccc(F)c4)[nH]n3)ncnc2c1` [AZD-1152-HQPA] yielded a CC50 at 48 h in series [4] of 38.9 nM. In addition, in series [5] (48 h), the “reduction in cell number / cells killed” value is on record as 67%.
For the molecule `CCOC(=O)c1cnc2ccc(-c3cc(Cl)c(O)c(Cl)c3)nc2c1Nc1ccc(CN(C)C)cc1` [Compound 27, Ethyl 6-(3,5-dichloro-4-hydroxyphenyl)-4-((4-((dimethylamino)methyl)phenyl)amino)-1,5-naphthyridine-3-carboxylate], in series [1] (HEK293T), the “fold reduction of cytotoxicity” value is recorded as ~ 60 fold. Moreover, the “DYRK1A-Luc EC50” value in series [2] was “maintained DYRK1A inhibition potency”.
Consider `CCOC(=O)c1cnc2ccc(-c3ccnc(N)c3)nc2c1N[C@H]1CC[C@H](CN2CCOCC2)CC1` [Compound 63, Ethyl 6-(2-aminopyridin-4-yl)-4-(((trans)-4-(morpholinomethyl)cyclohexyl)amino)-1,5-naphthyridine-3-carboxylate], for which the “MLM t1/2” value in series [8] is listed as “readily metabolized”. In addition, the Caco-2 in [6] is 2.7 1 x 10^−6 cm/s. Moreover, the “HLM t1/2” value in [9] is listed as “readily metabolized”.
`CCOC(=O)c1cnc2ccc(-c3cc(Cl)c(O)c(Cl)c3)nc2c1N1CCOCC1` [Compound 37, Ethyl 6-(3,5-dichloro-4-hydroxyphenyl)-4-morpholino-1,5-naphthyridine-3-carboxylate]: the “R-Luc CC50” value in [1] was “reduced cytotoxicity”. In addition, the “DYRK1A-Luc EC50” value in series [2] is “reduced DYRK1A inhibition potency”.
`COc1ccc2c(c1)[nH]c1c(C)nccc12` [Harmine, harmine]: the “human β-cell replication induction-potency [ECmin]” value in series [10] was ~ 3,000 nM.
Regarding `CC(=O)c1cnc2ccc(-c3cc(Cl)c(O)c(Cl)c3)nc2c1N[C@H]1CC[C@H](CN(C)C)CC1` [Compound 5], the remaining binding at 0.1 µM in [11] is less than 1%. Further, in series [12], the “kinases inhibited to less than 35% of baseline activity” value is listed as 189/403 and the “kinases with <1% residual activity” value is listed as 69/403. Moreover, the “dose range in which β-cell replication occurred” value in [13] was in the range of 5 to 40 nM.
On to `CCCCNC(=O)c1cnc2ccc(-c3cc(Cl)c(O)c(Cl)c3)nc2c1N[C@H]1CC[C@H](C(=O)N2CCOCC2)CC1` [Compound 47], for which, in [6], the Caco-2 is given as 9.1 1 x 10^−6 cm/s.

The record behind these values is publication PMC6941846 (Bioorganic & medicinal chemistry, 2019).
